target: T1, human Cot/Tpl2 kinase (Homo sapiens, UniProt P41279); experiment: Tpl2/Cot kinase assay: GST-MEK1 phosphorylation detected by ELISA (DELFIA Eu); assay type: biochemical; conditions: 0.4 nM Tpl2, 35 nM GST-MEK1, 50 uM ATP, 1 h at 30° C.
T1 construct: human Cot/Tpl2 kinase construct encoding residues 30-398; 6His (N); made in house; host or cells: Sf9 insect cells, baculovirus system (BD Biosciences)
Summary of the method: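 Substrate phosphorylation (GST-MEK1 Ser217/221) quantified by DELFIA europium ELISA, yielding IC50 values. Reaction: 1 h at 30° C, pH 7.2 MOPS buffer, 50 uM ATP, 35 nM GST-MEK1, 0.4 nM monomeric His-Tpl2 purified from Sf9 cells, compounds at 1% final DMSO; stopped with EDTA.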

T1 sequence (P41279 30-398): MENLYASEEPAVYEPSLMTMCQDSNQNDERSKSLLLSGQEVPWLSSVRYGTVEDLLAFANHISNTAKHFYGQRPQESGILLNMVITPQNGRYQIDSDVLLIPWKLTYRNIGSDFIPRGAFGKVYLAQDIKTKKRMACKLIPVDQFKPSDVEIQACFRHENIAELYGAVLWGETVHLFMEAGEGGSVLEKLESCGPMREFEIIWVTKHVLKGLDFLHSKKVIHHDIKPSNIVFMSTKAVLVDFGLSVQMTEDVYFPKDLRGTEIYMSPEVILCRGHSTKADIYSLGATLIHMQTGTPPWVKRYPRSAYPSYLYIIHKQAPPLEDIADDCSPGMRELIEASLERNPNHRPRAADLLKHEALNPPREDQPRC

Question: `N#Cc1cnc2c(Br)cc(NCc3nn[nH]c3-c3ccc(F)cc3)cc2c1Nc1ccc(F)c(Cl)c1` [Example 170, 8-bromo-4-[(3-chloro-4-fluorophenyl)amino]-6-({[5-(4-fluorophenyl)-1H-1,2,3-triazol-4-yl]methyl}amino)quinoline-3-carbonitrile] was tested. Which IC50 did it give?
Answer: The IC50 was 680 nM.

Question: For `CCOC(OCC)c1[nH]nnc1CNc1cc(Br)c2ncc(C#N)c(Nc3ccc(F)c(Cl)c3)c2c1` [Example 293, 8-Bromo-4-(3-chloro-4-fluoro-phenylamino)-6-[(5-diethoxymethyl-1H-[1,2,3]triazol-4-ylmethyl)-amino]-quinoline-3-carbonitrile], which IC50 is on record?
Answer: Its IC50 is 13 nM.

Question: How did the IC50 turn out when `N#Cc1ccccc1CNc1ccc2ncc(C#N)c(Nc3ccc(F)c(Cl)c3)c2c1` [Example 21, 4-(3-Chloro-4-fluoro-phenylamino)-6-(2-cyano-benzylamino)-quinoline-3-carbonitrile] was run?
Answer: The IC50 was 130 nM.

Question: `CC(C)(C)Nc1c(C#N)cnc2c(Br)cc(NCc3cccc[n+]3[O-])cc12` [Example 104, 8-bromo-4-(tert-butylamino)-6-(1-oxypyridin-2-ylmethylamino)quinoline-3-carbonitrile] was tested. Which IC50 did it give?
Answer: Its IC50 is 1500 nM.

Question: `CCCCc1ncc(CNc2cc(Br)c3ncc(C#N)c(Nc4ccc(F)c(Cl)c4)c3c2)[nH]1` [Example 107, 8-bromo-6-((2-butyl-1H-imidazol-5-yl)methylamino)-4-(3-chloro-4-fluorophenylamino)quinoline-3-carbonitrile] was tested. Which IC50 did it give?
Answer: The IC50 was 900 nM.

Question: With `Cc1cc(CNc2ccc3ncc(C#N)c(Nc4ccc(F)c(Cl)c4)c3c2)n(C)n1` [Example 33, 4-(3-Chloro-4-fluoro-phenylamino)-6-[(2,5-dimethyl-2H-pyrazol-3-ylmethyl)-amino]-quinoline-3-carbonitrile] as the molecule, how does the IC50 read?
Answer: Its IC50 is 200 nM.

Question: How did the IC50 turn out when `CN1CCC(n2cc(CNc3cc(Br)c4ncc(C#N)c(Nc5ccc(F)c(Cl)c5)c4c3)nn2)CC1` [Example 317, 8-bromo-4-[(3-chloro-4-fluorophenyl)amino]-6-({[1-(1-methylpiperidin-4-yl)-1H-1,2,3-triazol-4-yl]methyl}amino)quinoline-3-carbonitrile] was run?
Answer: Its IC50 is 19 nM.

Question: For `CC(Nc1ccc2ncc(C#N)c(Nc3ccc(F)c(Cl)c3)c2c1)c1ccccn1` (stereo not shown) [Example 127, 4-(3-chloro-4-fluorophenylamino)-6-(1-(pyridin-2-yl)ethylamino)quinoline-3-carbonitrile], which IC50 is on record?
Answer: Its IC50 is 64 nM.

Question: With `CC(=O)Nc1ccc(CNc2ccc3ncc(C#N)c(Nc4ccc(F)c(Cl)c4)c3c2)cc1` [Example 16, N-(4-{[4-(3-Chloro-4-fluoro-phenylamino)-3-cyano-quinolin-6-ylamino]-methyl}-phenyl)-acetamide] as the molecule, how does the IC50 read?
Answer: The IC50 was 227 nM.

Question: For `N#Cc1cnc2c(Br)cc(NCc3[nH]nnc3-c3ccccc3)cc2c1Nc1ccc(F)c(Cl)c1` [Example 311, 8-bromo-4-[(3-chloro-4-fluorophenyl)amino]-6-{[(4-phenyl-1H-1,2,3-triazol-5-yl)methyl]amino}quinoline-3-carbonitrile], which IC50 is on record?
Answer: The IC50 was 12 nM.

Question: For `N#Cc1cnc2c(C(F)(F)F)cc(NCc3cnc(N4CCOCC4)s3)cc2c1Nc1ccc(F)c(Cl)c1` [Example 244, 4-[(3-chloro-4-fluorophenyl)amino]-6-{[(2-morpholin-4-yl-1,3-thiazol-5-yl)methyl]amino}-8-(trifluoromethyl)quinoline-3-carbonitrile], which IC50 is on record?
Answer: Its IC50 is > 40000 nM.

Question: With `N#Cc1cnc2c(Cl)cc(NCc3cn(C4CCC(O)(c5ccccn5)CC4)nn3)cc2c1Nc1ccc(F)c(Cl)c1` (stereo not shown) [Example 335, 8-chloro-4-[(3-chloro-4-fluorophenyl)amino]-6-({[1-(4-hydroxy-4-pyridin-2-ylcyclohexyl)-1H-1,2,3-triazol-4-yl]methyl}amino)quinoline-3-carbonitrile] as the molecule, how does the IC50 read?
Answer: The IC50 was 20 nM.

Question: With `N#Cc1cnc2c(Cl)cc(NCc3c(CCCO)ncn3COCc3ccccc3)cc2c1Nc1ccc(F)c(Cl)c1` [Example 198, 6-({[1-[(benzyloxy)methyl]-4-(3-hydroxypropyl)-1H-imidazol-5-yl]methyl}amino)-8-chloro-4-[(3-chloro-4-fluorophenyl)amino]quinoline-3-carbonitrile] as the molecule, how does the IC50 read?
Answer: The IC50 was 870 nM.

Question: For `Cc1ncn(CCN2CCOCC2)c1CNc1ccc2ncc(C#N)c(Nc3ccc(F)c(Cl)c3)c2c1` [Example 130, 4-(3-chloro-4-fluorophenylamino)-6-((4-methyl-1-(2-morpholinoethyl)-1H-imidazol-5-yl)methylamino)quinoline-3-carbonitrile], which IC50 is on record?
Answer: The IC50 was 260 nM.

same assay, conditions: Table 2; Tpl2/Cot kinase, GST-MEK1 substrate, 50 uM ATP

Question: With `N#Cc1cnc2ccc(NCc3cccc[n+]3[O-])cc2c1NC1CCCC1` [Example 410] as the molecule, how does the IC50 read?
Answer: Its IC50 is 1300 nM.

Question: For `Cc1c(CNc2ccc3ncc(C#N)c(Nc4ccc(F)c(Cl)c4)c3c2)ncn1C` [Example 370], which IC50 is on record?
Answer: The IC50 was 3.2 nM.

Question: For `N#Cc1cnc2ccc(NCc3ccc(=O)n(CCN4CCOCC4)c3)cc2c1Nc1ccc(F)c(F)c1` [Example 345], which IC50 is on record?
Answer: Its IC50 is 1700 nM.

Question: `N#Cc1cnc2ccc(NCc3cccc(C(=O)O)c3)cc2c1Nc1ccc(F)c(Cl)c1` [Example 398] was tested. Which IC50 did it give?
Answer: The IC50 was 180 nM.

Question: For `CN(C)CCCc1nc[nH]c1CNc1cc(Cl)c2ncc(C#N)c(Nc3ccc(F)c(Cl)c3)c2c1` [Example 461], which IC50 is on record?
Answer: Its IC50 is 130 nM.

Question: With `N#Cc1cnc2ccc(NCCN3CCOCC3)cc2c1Nc1cccc(C(F)(F)F)c1` [Example 342] as the molecule, how does the IC50 read?
Answer: The IC50 was > 10000 nM.

Question: How did the IC50 turn out when `N#Cc1cnc2c(Cl)cc(NCc3cncn3O)cc2c1Nc1ccc(F)c(Cl)c1` [Example 438] was run?
Answer: Its IC50 is 110 nM.

Question: With `N#Cc1cnc2c(CO)cc(NCc3cnc[nH]3)cc2c1Nc1ccc(F)c(Cl)c1` [Example 464] as the molecule, how does the IC50 read?
Answer: The IC50 was 570 nM.

Question: `N#Cc1cnc2ccc(NCCN3CCOCC3)cc2c1Nc1ccc(Oc2ccccc2)cc1` [Example 338] was tested. Which IC50 did it give?
Answer: Its IC50 is 150 nM.

Question: `N#Cc1cnc2c(Br)cc(N)cc2c1Nc1ccc(F)c(Cl)c1` [Example 393] was tested. Which IC50 did it give?
Answer: The IC50 was 520 nM.

Question: How did the IC50 turn out when `N#Cc1cnc2c(Cl)cc(NCc3cncn3CCN3CCOCC3)cc2c1Nc1ccc(F)c(Cl)c1` [Example 489] was run?
Answer: The IC50 was 62 nM.

Question: Which IC50 does the source give for `N#Cc1cnc2c(Br)cc(NCC(=O)O)cc2c1Nc1ccc(F)c(Cl)c1` [Example 630] here?
Answer: The IC50 was 140 nM.

Question: How did the IC50 turn out when `N#Cc1cnc2c(Cl)cc(NCC(=O)NCCN3CCOCC3)cc2c1Nc1ccc(F)c(Cl)c1` [Example 608] was run?
Answer: Its IC50 is 530 nM.

Question: With `N#Cc1cnc2c(Br)cc(NCc3cn(CC4CCCN4)nn3)cc2c1Nc1ccc(F)c(Cl)c1` (stereo not shown) [Example 550] as the molecule, how does the IC50 read?
Answer: The IC50 was 9.2 nM.

same assay, conditions: Tpl2/Cot kinase, GST-MEK1 substrate, 50 uM ATP

Question: With `CCN1CCC(Nc2ccc3ncc(C#N)c(Nc4ccc(F)c(Cl)c4)c3c2)C(C)C1` (stereo not shown) [Example 659] as the molecule, how does the IC50 read?
Answer: The IC50 was > 40000 nM.

Question: For `N#Cc1cnc2c(Cl)cc(NCCNS(=O)(=O)Cc3ccccn3)cc2c1Nc1ccc(F)c(Cl)c1` [Example 857], which IC50 is on record?
Answer: The IC50 was 670 nM.

Question: Which IC50 does the source give for `CC(C)(C)OC(=O)N1CCC(CCn2cc(CNc3cc(Cl)c4ncc(C#N)c(Nc5ccc(F)c(Cl)c5)c4c3)nn2)CC1` [Example 674] here?
Answer: Its IC50 is 75 nM.

Question: Which IC50 does the source give for `CC(=O)N1CCC(CN(C(C)=O)c2cc(Cl)c3ncc(C#N)c(Nc4ccc(F)c(Cl)c4)c3c2)CC1` [Example 865] here?
Answer: Its IC50 is 380 nM.

Question: Which IC50 does the source give for `CCN1CCC[C@H]1Cn1cc(CNc2cc(Cl)c3ncc(C#N)c(Nc4ccc(F)c(Cl)c4)c3c2)nn1` [Example 895] here?
Answer: The IC50 was 10 nM.

Question: Which IC50 does the source give for `CC(C)(C)OC(=O)N1CCCC(Cn2cc(CNc3cc(Br)c4ncc(C#N)c(Nc5ccc(F)c(Cl)c5)c4c3)nn2)C1` (stereo not shown) [Example 713] here?
Answer: The IC50 was 120 nM.

Question: With `N#Cc1cnc2c(Cl)cc(NCc3cn(COCc4ccccc4)nn3)cc2c1Nc1ccc(F)c(Cl)c1` [Example 807] as the molecule, how does the IC50 read?
Answer: Its IC50 is > 3000 nM.

Question: Which IC50 does the source give for `CC(C)C(=O)NCCCn1cc(CNc2cc(Cl)c3ncc(C#N)c(Nc4ccc(F)c(Cl)c4)c3c2)nn1` [Example 911] here?
Answer: Its IC50 is 2.4 nM.

Question: For `N#Cc1cnc2c(Cl)cc(NCc3cn(Cc4cncnc4)nn3)cc2c1Nc1ccc(F)c(Cl)c1` [Example 879], which IC50 is on record?
Answer: The IC50 was 1.1 nM.

Question: Which IC50 does the source give for `N#Cc1cnc2c(Cl)cc(NCC(=O)NCc3cccnc3)cc2c1Nc1ccc(F)c(Cl)c1` [Example 771] here?
Answer: Its IC50 is 200 nM.

Question: With `N#Cc1cnc2c(Br)cc(NCc3cn(CC(F)(F)F)nn3)cc2c1Nc1ccc(F)c(Cl)c1` [Example 673] as the molecule, how does the IC50 read?
Answer: The IC50 was 100 nM.

Question: With `Cc1c(Cn2cc(CNc3cc(Cl)c4ncc(C#N)c(Nc5ccc(F)c(Cl)c5)c4c3)nn2)ccc[n+]1[O-]` [Example 842] as the molecule, how does the IC50 read?
Answer: The IC50 was 0.9 nM.

same assay, conditions: Tpl2/Cot kinase, GST-MEK1 substrate, 50 uM ATP, 1 h at 30° C.; Table 2

Question: Which IC50 does the source give for `CC(C)(C)OC(=O)N1CCC(n2cc(CNc3cc(Cl)c4ncc(C#N)c(NC5CCC6(CCCCC6)CC5)c4c3)nn2)CC1` [Example 973] here?
Answer: The IC50 was > 3000 nM.

Question: With `CC(C)(C)OC(=O)N1CCC(n2cc(CNc3cc(Cl)c4ncc(C#N)c(NC5CCCC5)c4c3)nn2)CC1` [Example 943] as the molecule, how does the IC50 read?
Answer: The IC50 was > 3000 nM.

Question: For `CN(C)CCn1cc(CNc2ccc3ncc(C#N)c(NC4CCCCC4)c3c2)nn1` [Example 969], which IC50 is on record?
Answer: The IC50 was 380 nM.

Question: `N#Cc1cnc2c(Cl)cc(N(Cc3cn(C4CCN(C(=O)OCCF)CC4)nn3)C(=O)OCCF)cc2c1Nc1ccc(F)c(Cl)c1` [Example 983] was tested. Which IC50 did it give?
Answer: Its IC50 is > 3000 nM.

Question: `CC(C)(C)OC(=O)N1CCC(n2cc(CNc3cc(Cl)c4ncc(C#N)c(Nc5ccc(Oc6ccccc6)cc5)c4c3)nn2)CC1` [Example 989] was tested. Which IC50 did it give?
Answer: Its IC50 is 400 nM.

Question: `N#Cc1cnc2c(Cl)cc(NCc3cccs3)cc2c1Nc1ccc(F)c(Cl)c1` [Example 1002] was tested. Which IC50 did it give?
Answer: The IC50 was > 3000 nM.

Question: `N#Cc1cnc2c(Cl)cc(NCc3cn(C4CCNCC4)nn3)cc2c1NC1CCC1` [Example 986] was tested. Which IC50 did it give?
Answer: Its IC50 is 350 nM.

Question: Which IC50 does the source give for `N#Cc1cnc2c(Cl)cc(NCc3cncc(C4=CCNCC4)c3)cc2c1Nc1ccc(F)c(Cl)c1` [Example 1056] here?
Answer: The IC50 was 880 nM.

Question: Which IC50 does the source give for `N#Cc1cnc2c(Cl)cc(NC[C@H]3C[C@H](OCc4ccccc4)CO3)cc2c1Nc1ccc(F)c(Cl)c1` [Example 935] here?
Answer: The IC50 was > 3000 nM.

Question: How did the IC50 turn out when `CC(=O)N1CCN(CCn2cc(CNc3cc(Cl)c4ncc(C#N)c(Nc5ccc(F)c(Cl)c5)c4c3)nn2)CC1` [Example 959] was run?
Answer: Its IC50 is 92 nM.

Question: With `CC(C)N1CCC(n2cc(CNc3cc(Cl)c4ncc(C#N)c(NC5CCOCC5)c4c3)nn2)CC1` [Example 1000] as the molecule, how does the IC50 read?
Answer: The IC50 was 480 nM.

Question: For `CC(C)NC1CCC(n2cc(CNc3cc(Cl)c4ncc(C#N)c(Nc5ccc(F)c(Cl)c5)c4c3)nn2)CC1` (stereo not shown) [Example 1037], which IC50 is on record?
Answer: The IC50 was 20 nM.
